Data taken from patent publication US8309602B2, “Multi-substituted diarylanilines as non-nucleoside HIV reverse transcriptase inhibitors, and preparation and use thereof” (Institute of Pharmacology and Toxicology, priority 2007, dated 2012).
Values after ≈ are worked out from the molar mass of the structure shown. Where two headings read alike, the source gives them in different places.

Assays:
Assay type in all cases: cell-based
[1] = Cytotoxicity test of compound in H9 cells; conditions: human, H9 cell line, uninfected cells
Method: (§1) Reference document (J. Med. Chem. 2004, 47, 756-760). Lymphocyte H9 was cultured at 37° C. in culture medium 1640 and 5% CO2. […] The cultured H9 cells were divided into two parts, wherein one of the parts was infected with HIV virus (IIIB) (m.i.o. 0.1-0.01 infectious Units/cell), which was used for assaying activity. The other part of the cells was not added with viruses but only with culture medium, which was used for assaying toxicity. The two parts of the cells were cultured under completely identical conditions (37° C., 5% CO2) for 4 hours, washed with fresh culture medium for three times, and then were added respectively to the prepared tested samples of different concentrations or to culture medium (the latter was positive infection control or negative drug control), and meanwhile AZT was used as positive drug control. All these cells were cultured at 37° C. in 5% CO2 for 4 days. […] The part of the cells without viruses added were tested by the method of counting cells to assay the toxicity of the sample, expressed using CC50. […] Reference documents (Jiang, S., et al. Antimicrob. Agents Chemother. 2004, 48, 4349-4359). In 96 wells culture plate, 50 μl of different concentrations of compound solutions were mixed with PBS in the same volume, incubated at 37° C. for 30 minutes, added with 100 μL TM-2 (or H9) cell (1×10^5/mL, RPIM 1640 culture medium containing 10% serum), mixed uniformly, and incubated at 37° C. overnight.

[2] = Cytotoxicity test of compound in MT-2 cells (XTT); conditions: human, MT-2 cell line, uninfected cells
Method: (§2) Reference documents (Jiang, S., et al. Antimicrob. Agents Chemother. 2004, 48, 4349-4359). In 96 wells culture plate, 50 μl of different concentrations of compound solutions were mixed with PBS in the same volume, incubated at 37° C. for 30 minutes, added with 100 μL TM-2 (or H9) cell (1×10^5/mL, RPIM 1640 culture medium containing 10% serum), mixed uniformly, and incubated at 37° C. overnight.

[3] = tested on: HIV virus (IIIB); assay: Assay of anti-HIV activity (H9 cell model), P24 antigen ELISA; conditions: for SI (CC50/EC50): H9 cell line, ratio of cytotoxicity CC50 to activity EC50; for EC50: H9 cell line infected with HIV (IIIB), 50% inhibition of virus replication
Method: Reference document (J. Med. Chem. 2004, 47, 756-760). Lymphocyte H9 was cultured at 37° C. in culture medium 1640 and 5% CO2. The tested compound was initially dissolved in DMSO, and then diluted with culture medium to conventional screening concentration: 100, 20, 4, 0.8 μg/mL. The cultured H9 cells were divided into two parts, wherein one of the parts was infected with HIV virus (IIIB) (m.i.o. 0.1-0.01 infectious Units/cell), which was used for assaying activity. The other part of the cells was not added with viruses but only with culture medium, which was used for assaying toxicity. The two parts of the cells were cultured under completely identical conditions (37° C., 5% CO2) for 4 hours, washed with fresh culture medium for three times, and then were added respectively to the prepared tested samples of different concentrations or to culture medium (the latter was positive infection control or negative drug control), and meanwhile AZT was used as positive drug control. All these cells were cultured at 37° C. in 5% CO2 for 4 days. In the fourth day, the cell membranes of the cells infected by viruses were removed, and the cytosol was tested by P24 antigen ELISA method to assay the activity of the sample, expressed using EC50. EC50 was an effective concentration when virus replication was inhibited by 50%. The part of the cells without viruses added were tested by the method of counting cells to assay the toxicity of the sample, expressed using CC50. CC50 was a concentration when growth cells were killed by 50%.

[4] = tested on: HIV-1IIIB virus strains; assay: Assay of anti-HIV activity (MT-2 cell model), p24 antigen ELISA; conditions: for EC50: MT-2 cell line infected with HIV-1IIIB, 50% virus inhibition; for SI (CC50/EC50): MT-2 cell line, ratio of cytotoxicity CC50 to activity EC50
Method: Reference documents (Jiang, S., et al. Antimicrob. Agents Chemother. 2004, 48, 4349-4359). In 96 wells culture plate, 50 μl of different concentrations of compound solutions were mixed with HIV-1IIIB virus strains (100 TCID50) in the same volume, incubated at 37° C. for 30 minutes, added with 100 μl TM-2 cell (1×10^5/mL, RPIM 1640 culture medium containing 10% serum), mixed uniformly, and incubated at 37° C. overnight. In the second day, 150 μl supernatant was sucked off and supplemented with fresh culture medium in the same volume, the compound solutions were incubated continuously at 37° C. for 3 days, and the cell pathology effect (CPE) was recorded in the fourth day. Then 100 μl cultured supernatant was sucked up to determine p24 antigen therein with 5% Triton X-100 lytic virus particles by using ELISA method. Briefly, HIVIG (2 μg/ml) was used to encapsulate enzyme standard plate, sealed with 1% fat-free milk, and then added with virus lytic solution, incubated at 37° C. for 60 minutes. After the plate was washed completely, anti-p24 monoclonal antibody-183-12H-5C, goat anti-mouse antibody labeled with biotin and horse radish peroxidase labeled with avidin were added. Then the compounds were developed with TMB, and the light density was tested at 450 nm. The virus inhibition concentration of 50% (EC50) of the compounds was calculated by using CalcuSyn software.

[5] = tested on: H9 cells; assay: Cytotoxicity test of compound in H9 cells; conditions: H9 cell line, uninfected cells
Method: as §1

[6] = tested on: MT-2 cells; assay: Cytotoxicity test of compound in MT-2 cells (XTT); conditions: MT-2 cell line, uninfected cells
Method: as §2

[7] = Human immunodeficiency virus 1, read-out: EC50
[8] = Human immunodeficiency virus 1, MT2, read-out: EC50

SMILES	CC50 at 4 days [1]	CC50 at 4 days [2]	SI (CC50/EC50) [3]	EC50 [3, 7]	EC50 [4, 8]	SI (CC50/EC50) [4]	CC50 [5]	CC50 [6]	EC50 [3]	EC50 [4]	CC50 at 4 days ([1]; H9 lymphocyte cells)	CC50 at 4 days ([2]; MT-2 cells)
Cc1cc(Br)cc(C)c1Oc1cc(Nc2ccc(C#N)cc2)c([N+](=O)[O-])cc1[N+](=O)[O-] [Compound I-1, N^1-(4′-cyanophenyl)-5-(2′,6′-dimethyl-4′-bromophenoxy)-2,4-dinitroaniline]	> 25 µg/mL	> 100 µg/mL	>234	0.11 µg/mL (≈ 0.228 µM)	0.14 µg/mL (≈ 0.29 µM)	>714						
Cc1cccc(C)c1Oc1cc(Nc2ccc(C#N)cc2)c([N+](=O)[O-])cc1[N+](=O)[O-] [Compound I-2, N^1-(4′-cyanophenyl)-5-(2′,6′-dimethylphenoxy)-2,4-dinitroaniline]	> 25 µg/mL	> 100 µg/mL	>113	0.22 µg/mL (≈ 0.544 µM)	3.71 µg/mL (≈ 9.17 µM)	>27						
Cc1cc(C)c(Nc2cc(Nc3ccc(C#N)cc3)c([N+](=O)[O-])cc2[N+](=O)[O-])c(C)c1 [Compound I-3, N^1-(4′-cyanophenyl)-2,4-dinitro-N^5-(2′,4′,6′-trimethylphenyl)-benzene-1,5-diamine]	> 25 µg/mL	> 100 µg/mL	>455	0.055 µg/mL (≈ 0.132 µM)	0.18 µg/mL (≈ 0.431 µM)	>556						
CC(=O)ON(c1cc(Nc2ccc(C#N)cc2)c([N+](=O)[O-])cc1[N+](=O)[O-])c1c(C)cc(C)cc1C [Compound I-4, N^1-(4′-cyanophenyl)-2,4-dinitro-[N^5-acetoxy-N^5-(2′,4′,6′-trimethylphenyl)]benzene-1,5-diamine]			>14.15			23.45	>25 µg/mL	61.21 µg/mL (≈ 129 µM)	1.77 µg/mL (≈ 3.72 µM)	2.61 µg/mL (≈ 5.49 µM)		
Cc1cc(Br)cc(C)c1Oc1cc(Nc2ccc(C#N)cc2)c(N)cc1[N+](=O)[O-] [Compound I-5, 4-(4′-Bromo-2′,6′-dimethylphenoxy)-N^2-(4′-cyanophenyl)-5-nitrobenzene-1,2-diamine]			>1000	< 0.025 µg/mL	< 0.02 µg/mL	>3054					> 25 µg/mL	61.1 µg/mL (≈ 135 µM)
Cc1cc(C#N)cc(C)c1Oc1ccc([N+](=O)[O-])c(Nc2ccc(C#N)cc2)c1 [Compound I-6, N^1-(4′-cyanophenyl)-5-(4′-cyano-2′,6′-dimethylphenoxy)-2-nitroaniline]			>312	0.08 µg/mL (≈ 0.208 µM)	6.63 µg/mL (≈ 17.2 µM)	8.53					> 25 µg/mL	56.5 µg/mL (≈ 147 µM)
Cc1cccc(C)c1Oc1ccc([N+](=O)[O-])c(Nc2ccc(C#N)cc2)c1 [Compound I-7, N^1-(4′-cyanophenyl)-5-(2′,6′-dimethylphenoxy)-2-nitroaniline]			>33	0.76 µg/mL (≈ 2.11 µM)	1.18 µg/mL (≈ 3.28 µM)	>85					> 25 µg/mL	> 100 µg/mL
Cc1cc(Br)cc(C)c1Oc1cc(Nc2ccc(C#N)cc2)c(N)cc1N [Compound I-8, 5-(4′-Bromo-2′,6′-dimethylphenoxy)-N^1-(4′-cyanophenyl)benzene-1,2,4-triamine]			239	0.068 µg/mL (≈ 0.161 µM)	0.13 µg/mL (≈ 0.307 µM)	132					16.2 µg/mL (≈ 38.4 µM)	17.2 µg/mL (≈ 40.6 µM)
Cc1cc(C#N)cc(C)c1Oc1cc(Nc2ccc(C#N)cc2)c(N)cc1N [Compound I-10, N^1-(4′-cyanophenyl)-5-(4′-Cyano-2′,6′-dimethylphenoxy)benzene-1,2,4-triamine]			>820	< 0.025 µg/mL	0.008 µg/mL (≈ 0.0217 µM)	2425					20.5 µg/mL (≈ 55.5 µM)	19.4 µg/mL (≈ 52.5 µM)
Cc1cc(C#N)cc(C)c1Oc1cc(Nc2ccc(C#N)cc2)c(N)cc1[N+](=O)[O-] [Compound I-11, 5-(4′-Cyano-2′,6′-dimethylphenoxy)-N^1-(4′-cyanophenyl)-4-nitrobenzene-1,2-diamine]			>1000	< 0.025 µg/mL	0.013 µg/mL (≈ 0.0325 µM)	4715					> 25 µg/mL	61.3 µg/mL (≈ 153 µM)
Cc1cc(Br)cc(C)c1Oc1ccc(N)c(Nc2ccc(C#N)cc2)c1 [Compound I-13, 4-(4′-Bromo-2′,6′-dimethylphenoxy)-N^2-(4′-cyanophenyl)benzene-1,2-diamine]			128	0.134 µg/mL (≈ 0.328 µM)	0.16 µg/mL (≈ 0.392 µM)	91					17.2 µg/mL (≈ 42.1 µM)	14.5 µg/mL (≈ 35.5 µM)
Cc1cc(C)c(Oc2cc(Nc3ccc(C#N)cc3)c([N+](=O)[O-])cc2[N+](=O)[O-])c(C)c1 [Compound I-14, N^1-(4′-cyanophenyl)-5-(2′,4′,6′-trimethylphenoxy)-2,4-dinitroaniline]	> 25 µg/mL	28.8 µg/mL (≈ 68.7 µM)	>174	0.144 µg/mL (≈ 0.344 µM)	0.7 µg/mL (≈ 1.67 µM)	41.09						
